Measurements: patent US9868728B2, “Quinazoline derivatives, compositions, and uses related thereto” (Emory University, priority 2010, dated 2018)

How the values were obtained:
human neutrophils = experiment: ROS production in human neutrophils; assay type: cell-based; details: Neutrophil, which express the Nox2 system, read-out: IC50 of inhibition of ROS production
Excerpt: The Nox2 inhibition activity of two compounds is shown in FIG. 1, along with data from the two assay controls.

NOX2 = target: T1, NOX2 (Homo sapiens, UniProt P04839); experiment: Nox2 cell-free assay (LO12 luminescence); assay type: biochemical; details: Nox2 cell-free system; for IC50: read-out: NOX2 IC50 (concentration giving half-maximal inhibition); for Emax: value in parentheses, read-out: % inhibition (maximum inhibition achieved at a very high concentration of the compound)
T1 construct: isolated plasma membranes from human neutrophils as a source for Nox2-p22phox; from tissue; host or cells: Plasma membranes of human neutrophils (Nox2-p22phox); cytosolic factors recombinant from E. coli
T1 sequence (P04839 2-570 limits assumed): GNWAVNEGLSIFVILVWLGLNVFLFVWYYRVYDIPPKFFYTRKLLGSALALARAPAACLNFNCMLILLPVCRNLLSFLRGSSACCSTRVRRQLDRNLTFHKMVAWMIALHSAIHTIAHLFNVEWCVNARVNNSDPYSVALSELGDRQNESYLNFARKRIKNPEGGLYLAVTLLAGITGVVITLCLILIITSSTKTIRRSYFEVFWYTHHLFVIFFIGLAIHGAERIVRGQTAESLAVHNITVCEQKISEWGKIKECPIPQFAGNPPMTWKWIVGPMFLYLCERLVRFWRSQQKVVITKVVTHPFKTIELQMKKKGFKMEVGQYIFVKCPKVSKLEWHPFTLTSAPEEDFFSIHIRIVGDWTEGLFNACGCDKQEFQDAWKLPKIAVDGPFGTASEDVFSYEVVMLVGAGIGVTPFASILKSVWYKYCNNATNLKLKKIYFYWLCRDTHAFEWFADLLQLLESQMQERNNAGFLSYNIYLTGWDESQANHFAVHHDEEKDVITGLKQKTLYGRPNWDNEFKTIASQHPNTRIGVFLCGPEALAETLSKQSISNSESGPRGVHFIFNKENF
T1 sequence (P13498 2-195 partner limits assumed): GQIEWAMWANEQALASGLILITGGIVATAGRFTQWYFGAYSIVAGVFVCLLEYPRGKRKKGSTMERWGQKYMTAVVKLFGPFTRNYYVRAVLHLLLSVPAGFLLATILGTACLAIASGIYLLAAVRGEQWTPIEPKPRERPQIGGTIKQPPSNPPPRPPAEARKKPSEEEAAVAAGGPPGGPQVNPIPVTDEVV
Procedure: The following compounds were tested according to the procedures provided in the experimental section. Assays were carried out using the Nox2 cell-free system. The IC50 value is the concentration giving half-maximal inhibition, while the “% inhibition” shown in parentheses is the maximum inhibition achieved at a very high concentration of the compound. 100% refers to complete inhibition within experimental error of the assay.
In certain assays a Cell-Free recombinant NOX-2 system (consisting of isolated plasma membranes from human neutrophils as a source for Nox2-p22phox, supplemented with recombinant p47phox, p67phox and Rac1Q61L (activated Rac), expressed in and isolated from of E. coli. LO12 luminescence was used as a readout to monitor enzymatic activity.
Plasma membranes were prepared from human neutrophils, which express large amounts of Nox2 and stored at −80 C until use. Membranes are mixed with recombinant, purified cytosolic regulatory proteins (p67Np47 chimera, and constitutively active Rac1 mutant Q61) and FAD, along with varying concentrations of compound, and LO12, which luminesces when it reacts with ROSvi. The reaction is started by addition of NADPH and SDS (an artificial stimulus for Nox2). See Curnutte et al., (1987) J. Biol. Chem. 262: 6450-6452.

Nox4 DH = target: T2, Nox4 DH (Homo sapiens, UniProt Q9NPH5); experiment: Nox4 DH inhibition kinetics with NADPH; assay type: biochemical; details: versus substrate NADPH; major effect on apparent Km, minor effect on Vmax
T2 sequence (Q9NPH5 304-578 limits assumed): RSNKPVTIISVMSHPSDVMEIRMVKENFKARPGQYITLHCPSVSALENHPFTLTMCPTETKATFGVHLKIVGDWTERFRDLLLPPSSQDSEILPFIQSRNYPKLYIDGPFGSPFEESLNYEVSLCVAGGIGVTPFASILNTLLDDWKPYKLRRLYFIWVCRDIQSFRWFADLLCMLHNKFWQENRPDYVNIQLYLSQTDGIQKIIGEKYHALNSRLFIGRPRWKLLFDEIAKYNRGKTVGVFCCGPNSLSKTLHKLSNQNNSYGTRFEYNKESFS

Compound | IC50 (NOX2) [nM] | other results
CN(C)CCCCn1c(SCC(=O)Nc2nc(-c3ccc(Br)cc3)cs2)nc2ccccc2c1=O [AS158b] | 2000 | IC50 (human neutrophils): 1500 nM; Emax (NOX2): 100%
CN(C)CCCn1c(=S)[nH]c2ccc(Cl)cc2c1=O.Cl [TG6-44] | 1000 | IC50 (human neutrophils): 2000 nM; mode of inhibition of Nox4 DH (Nox4 DH): competitive inhibitor; Emax (NOX2): 100%
CCSC1Nc2ccccc2C(=O)N1CCC[N+]1(CC)CCOCC1 (stereo not shown) [TG6-99-2] | 1500 | Emax (NOX2): 99%
N#CCCCCSc1nc2ccccc2c(=O)n1CCN1CCCCC1 [TG6-101] | – | NOX2 IC50 (concentration giving half-maximal inhibition) (NOX2): Not active
CSc1nc2ccccc2c(=O)n1CCC[N+]1(C)CCOCC1 [TG6-103-1] | 1500 | Emax (NOX2): 100%
CSc1nc2ccc(F)cc2c(=O)n1CCC[N+](C)(C)C [TG6-103-2] | 1000 | Emax (NOX2): 100%
O=c1c2cc(Cl)ccc2[nH]c(=S)n1CCN1CCNCC1 [TG6-170] | 2000 | –
O=c1c2cc(Cl)ccc2[nH]c(=S)n1CCCN1CCCCC1 [TG6-172] | 1100 | –
O=C(c1ccc(F)cc1)N1CCN(CCn2c(=S)[nH]c3ccc(Cl)cc3c2=O)CC1 [TG6-173] | 2000 | –
O=c1c2cc(Cl)ccc2[nH]c(=S)n1CCCN1CCCCC1 [TG6-243] | 600 | –
CN(C)CCCn1c(=S)[nH]c2ccc(F)cc2c1=O [TG6-248] | 600 | –
O=c1c2ccccc2[nH]c(=S)n1CCCN1CCOCC1 [TG6-249] | 1000 | –
CN(C)CCCn1c(=S)[nH]c2cc(F)c(F)cc2c1=O [TG6-250] | 400 | –
CCn1c(=S)[nH]c2ccc(F)cc2c1=O [TG6-269-1] | 700 | –
CC(C)n1c(=S)[nH]c2cc3c(cc2c1=O)OCCO3 [TG6-272] | 700 | –
CCCn1c(=S)[nH]c2ccc(Cl)cc2c1=O [TG6-280] | 8000 | –
CC(C)n1c(=S)[nH]c2cc(F)c(F)cc2c1=O [TG6-284-2] | 700 | –
CN(C)c1cccc(-n2c(=S)[nH]c3ccc(Cl)cc3c2=O)c1 [TG6-285] | 1300 | –
CN(C)CCCn1c(=S)[nH]c2cc3c(cc2c1=O)OCCO3 [TG6-290-1] | 800 | –
COc1cc2[nH]c(=S)n(C#N)c(=O)c2cc1OC [TG6-295-2] | 200 | –
COc1ccc(N2CCN(CCn3c(=S)[nH]c4ccc(Cl)cc4c3=O)CC2)cc1 [TG7-20] | 300 | –
COc1ccc(N(C)CCCn2c(=S)[nH]c3ccc(Cl)cc3c2=O)cc1 [TG7-25] | 200 | –
COc1ccc(N2CCN(CCn3c(=S)[nH]c4cc(OC)c(OC)cc4c3=O)CC2)cc1 [TG7-29] | 700 | –
